# Where a SMILES comes first, the peptide text is derived from it.
# Experiments:
# PBMCs = test: Induction of cytokine release from PBMCs (membrane antibody array); type: cell-based, human; conditions: PBMC medium, 4 hr, 100 nM peptide; for Relative concentration of IL-21: IFN-γ printed in place of LPS
# Experimental: To determine whether inhibition of HIV replication by the peptide may be the result of induction of release of cytokines, cultured PBMCs were treated with one peptide embodiment of the present invention and, after 4 hr incubation, the medium was collected and assayed for changes in the amounts of 40 different cytokines. […] Approximately 3 million cells of frozen human PBMCs were thawed at 37° C. and transferred to a 50 mL conical tube where 8 mL of wash medium were added slowly. Then an additional 8 mL of wash medium were added and swirled to mix. The cells were then centrifuged at 330 g for 10 min, the supernatant was removed and the pellet was resuspended in 10 mL wash medium and centrifuged as above. The washed cells were then resuspended in RPMI-1640 medium containing 10% FBS to about 6 million cells per mL and 100 μL of the suspension were added into each well of a 96-well microtiter plate and incubated overnight at 37° C. in humidified 5% CO2. After 24 hr the medium was replaced with 200 μL fresh RPMI-1640 medium containing 10% FBS and incubated at 37° C. in humidified 5% CO2 for 2 days. For the data shown in TABLE 4, the peptide aliquot was then added to samples in duplicate at a final concentration of 100 nM and incubated at 37° C. in humidified 5% CO2 for 4 hr. For other experiments (data not included), the incubation was continued for 24 hr. The medium was then removed and stored at −80° C. The samples were analyzed for production of cytokines One set of control cells was not treated with an experimental agent.
# Culture medium was removed for assay of cytokine levels with methods developed by RayBiotech, Inc. (Norcross, Ga.). In this technology, membrane arrays of antibodies against cytokines were incubated with samples of media. After washing, the array was incubated with a cocktail of all antibodies tagged with biotin. The membrane was then washed free of unbound antibodies and incubated with streptavidin labeled with a fluorescent dye. After a final wash, the membrane arrays were read in a fluorescence detector.
# [1] = test system: macrophages in PBMC cultures; test: Phagocytosis of microspheres opsonized with anti-HIV antibodies; type: cell-based, human
# Experimental: The ability of the peptide constructs to stimulate phagocytosis was assessed in two experiments. In the first experiment, a biotin-tagged peptide epitope of a surface protein of HIV-1 was bound to streptvidin on the surface of the beads. An antibody preparation that was raised against this epitope was then bound to the HIV peptide. The beads were then washed and presented to peripheral blood mononuclear cell (PBMC) cultures pretreated with peptides. […] In multiple control cultures, the number of beads within a macrophage-like cell ranged from 0 to 3. […] In the treated cultures, greater than 20 beads were counted in each phagocytic cell. After several subsequent and similar experiments were conducted, a phagocytic index was developed for the activity of macrophages to ingest microspheres opsonized with anti-HIV antibodies (TABLE 1).
# [2] = test system: HIV-1 clade B (Strain SF162) and clade C (Strain 97ZA009); test: Inhibition of HIV replication (neutralization) in PBMCs, p24 immunoassay; type: cell-based; conditions: 10 nM, FIGS. 13A-B
# Experimental: The ability of the peptides to inhibit replication of HIV, both alone and in combination with antibodies, was tested as follows. Approximately 3 million cells of frozen human PBMCs, obtained from the California Blood Bank system, were thawed at 37° C. and transferred to a 50 mL conical tube where 8 mL of wash medium were added slowly. Then an additional 8 mL of wash medium were added and swirled to mix. The cells were then centrifuged at 330 g for 10 min, the supernatant was removed and the pellet was resuspended in 10 mL wash medium and centrifuged as above. The washed cells were then resuspended in RPMI-B medium containing 10% FBS, phytohemagglutin was added to 5 μg/mL, and cells were incubated at 37° C. for 24 hr in humidified 5% CO2. Cells were washed, suspended to about 6 million cells per mL, and 50 μL, (about 250,000 viable cells) were added to each test well. Then 100 ↑L of the test peptide were added at a concentration sufficient to provide the desired final concentration, followed by 100 μL of virus suspension (100 median tissue culture infective doses (TCID50s)). The assay plate was incubated 3 days at 37° C., then washed 3 times to remove unbound virus, and the cells were again suspended to 250 μL of medium. After an additional 24 hr of incubation, cells were lysed with Triton X-100 and each sample was assayed by an enzyme-linked immunoassay for virus protein p24 to quantify neutralization of virus. In another set of samples, antibody preparations were also added at a desired concentration (i.e., in addition to peptide).
# This peptide construct was assayed for activity with two strains of HIV, clade B (Strain SF162) and clade C (Strain 97ZA009), both of which were provided by the California Department of Public Health (Richmond, Calif.). HIV-1 clade B is the major strain in North America and HIV-1 clade C is the major strain in central and southern Africa, India and China. The peptide was assayed either alone (−) or in combination with serum from HIV-infected individuals (+), as outlined below in TABLE 3.
# (SEQ ID NO:7). The short bars represent neutralization by peptide alone. The long bars represent neutralization when pooled serum from HIV-positive patients was added along with the peptide. The bars represent averages from two experiments, each performed in quadruplicate. In one set of experiments, each peptide was assayed at 10 nM for the ability to inhibit replication. In the absence of peptide, the antibody preparation (serum) provided only about 30% neutralization (inhibition), at the same dilution (data not shown).
# [3] = test system: peripheral blood mononuclear cells; test: Phagocytosis of opsonized microspheres by peptide-treated PBMCs (second experiment); type: cell-based, human; conditions: 50 nM peptide construct; interferon-gamma 100 ng/mL
# Experimental: In a second experiment, streptavidin-coated microspheres, dyed with Dragon Green (0.97 μm diameter, Bangs Laboratories, Inc., Fishers, Ind.) were opsonized with rabbit anti-streptavidin serum (Sigma-Aldrich) and washed with phosphate buffered saline, pH 7.4 (PBS). Human PBMCs were cultured in microtiter plates in RPMI-1640 medium containing 10% fetal bovine serum (FBS) and 1:100 dilution of penicillin-streptomycin solution (Mediatech, Inc., Herndon, Va.) Cultures were washed to remove non-adherent cells, and fresh medium containing FBS, antibiotics, and 50 nM peptide was added to adherent cells for an additional 20 to 24 h. Microspheres were added at approximately a 10:1 ratio to total cells, and after an additional 30 to 60 min of incubation, a solution containing 2% formalin was added. […]
# FIGS. 9A-I illustrate phagocytosis of opsonized microspheres by peptide-treated PBMCs. […] The experiment was quantified by counting the number of beads in the phagocytic cells (TABLE 2).
# In order to establish that the bead-like material within the cells was indeed engulfed beads, fluorescence was examined. […] Cells were examined by both phase contrast microscopy (left panels) and fluorescence microscopy with blue excitation light (right panels). […]
# [4] = test system: lectins (HP, GS, WGA, DB, UEA1, SNA1, MAA, concanavalin A); test: Lectin binding, panel of lectins (valency and specificity); conditions: seven lectins, equal number of HPSLK sequences per well, FIG. 4
# Description: Each assay used the same basic procedure.
# FIG. 6 illustrates the specificity with which the quadravalent peptide constructs bind to different lectins.
# PBMC cultures = conditions: 72 hr, 1 mM, FIG. 15
# Experimental: The ability of peptides to reduce viability of cells in PBMC cultures was assayed by adding a range of concentrations and testing viability by dye uptake. PBMC cultures were incubated with the peptides for 72 hr each at the increasing concentrations of 1 nM, 1 μM and 1 mM. Ability of cells to exclude a dye was an indication of viability as viable cells express green fluorescence and non-viable cells express orange fluorescence.
Molecule,Relative concentration of IL-12p40 (PBMCs) [arbitrary units],Relative concentration of IL-15 (PBMCs) [arbitrary units],Relative concentration of IL-16 (PBMCs) [arbitrary units],Relative concentration of IL-17 (PBMCs) [arbitrary units],Relative concentration of sTNF RII (PBMCs) [arbitrary units],Relative concentration of IL-21 (PBMCs),Phagocytosis Index [1],inhibitory activity when assayed alone [2],level of inhibition with antibodies added [2],Beads/cell (mean ± SD) [3],other results
PSSNA: peptide construct containing four copies of the core sequence PSSNA,28,153,12,21,21,130 arbitrary units,+++ (+++ = 15),substantial inhibitory activity,enhanced by adding antibodies,–,Relative concentration of IL-4 (PBMCs): 60 arbitrary units; Relative concentration of IL-8 (PBMCs): 702 arbitrary units; Relative concentration of IL-12p70 (PBMCs): 69 arbitrary units; Relative concentration of TNF-α (PBMCs): 123 arbitrary units
VGGGS: peptide construct containing four copies of the core sequence VGGGS,51,130,10,24,26,–,+++ (+++ = 15),substantial inhibitory activity,enhanced by adding antibodies,–,Relative concentration of ICAM-1 (PBMCs): 89 arbitrary units; Relative concentration of IL-1α (PBMCs): 291 arbitrary units; Relative concentration of IL-2 (PBMCs): 125 arbitrary units; Relative concentration of IP-10 (PBMCs): 321 arbitrary units; Relative concentration of RANTES (PBMCs): 213 arbitrary units; Relative concentration of TIMP-2 (PBMCs): 205 arbitrary units; Relative concentration of TNF-β (PBMCs): 111 arbitrary units
"VSNQH: peptide construct containing four copies of an inactive core sequence VSNQH, negative control (VNSQH) [reference compound]",–,–,–,–,–,–,–,–,–,1.3 ± 1.8,–
single sequence: peptide with 1 arm containing the core sequence HPSLK,–,–,–,–,–,–,–,–,–,–,binding relative to the quadravalent peptide (set as 100%) [4]: much lesser extent
"CC(C)C[C@H](NC(=O)[C@H](CO)NC(=O)[C@@H]1CCCN1C(=O)[C@@H](N)Cc1c[nH]cn1)C(=O)N[C@@H](CCCCN)C(=O)NCC(=O)NCC(=O)NCC(=O)N[C@@H](CO)C(=O)NCCCC[C@H](NC(=O)[C@H](CO)NC(=O)CNC(=O)CNC(=O)CNC(=O)[C@H](CCCCN)NC(=O)[C@H](CC(C)C)NC(=O)[C@H](CO)NC(=O)[C@@H]1CCCN1C(=O)[C@@H](N)Cc1c[nH]cn1)C(=O)NCCCC[C@H](NC(=O)[C@H](CCCCNC(=O)[C@H](CO)NC(=O)CNC(=O)CNC(=O)CNC(=O)[C@H](CCCCN)NC(=O)[C@H](CC(C)C)NC(=O)[C@H](CO)NC(=O)[C@@H]1CCCN1C(=O)[C@@H](N)Cc1c[nH]cn1)NC(=O)[C@H](CO)NC(=O)CNC(=O)CNC(=O)CNC(=O)[C@H](CCCCN)NC(=O)[C@H](CC(C)C)NC(=O)[C@H](CO)NC(=O)[C@@H]1CCCN1C(=O)[C@@H](N)Cc1c[nH]cn1)C(N)=O [HPSLK] (HELM PEPTIDE1{H.P.S.L.K.G.G.G.S.K.K.[am]}|PEPTIDE2{H.P.S.L.K.G.G.G.S.K}|PEPTIDE3{H.P.S.L.K.G.G.G.S}|PEPTIDE4{H.P.S.L.K.G.G.G.S}$PEPTIDE1,PEPTIDE4,10:R3-9:R2|PEPTIDE1,PEPTIDE2,11:R3-10:R2|PEPTIDE2,PEPTIDE3,10:R3-9:R2$$$V2.0)",–,–,–,–,–,–,–,–,–,–,viability of cells in PBMC cultures (PBMC cultures): partially reduced viability
"Interferon-gamma: interferon-gamma, positive control (protein, UniProt P01579 24-161, looked up) Interferon gamma: QDPYVKEAENLKKYFNAGHSDVADNGTLFLGILKNWKEESDRKIMQSQIVSFYFKLFKNFKDDQSIQKSVETIKEDMNVKFFNSNKKKRDDFEKLTNYSVTDLNVQRKAIHELIQVMAELSPAAKTGKRKRSQMLFRG",–,–,–,–,–,(IFN-γ: 100) arbitrary units,+++ (+++ = 15),–,–,35.8 ± 12.6,–
